Consider one molecule from PMC8121435, “Cork-in-bottle mechanism of inhibitor binding to mammalian complex I” (Science Advances, 2021).

The structures appear in SMILES notation.

Assay [1] has as its target T1, complex I in bacterial membranes (Paracoccus denitrificans, UniProt P29916+P29918+P29920).
T1 construct: Complex I was purified from P. denitrificans strain Pd1222; endogenous in cells; host or cells: P. denitrificans strain Pd1222
Description: NADH oxidation in P. denitrificans bacterial membranes. In kind it is biochemical. Particulars: P. denitrificans membranes 20 μg ml−1. On the procedure: All catalytic activity assays were conducted at 32°C in 96-well plates using a Molecular Devices Spectramax 384 plus plate reader. Catalysis was initiated by addition of 200 μM NADH and monitored at 340 and 380 nm (ε340–380 = 4.81 mM^−1 cm^−1). Linear rates were measured for all assays, inhibitors were added from dimethyl sulfoxide stock solutions as required, and inhibitor-insensitive rates (using either 1 μM piericidin A or 1.4 μM IACS-2858) were subtracted from each measured rate. Membrane samples were prepared as described previously ([17], [20], [59], [60]), diluted to 20 μg ml^−1 in 10 mM tris-SO4 (pH 7.5) and 250 mM sucrose, and supplemented with 3 μM horse heart cytochrome c (except for P. denitrificans, for which the activity is unaffected by the addition). Mouse, bovine, and yeast (Y. lipolytica) complex I were purified as described previously ([17], [20], [59]); diluted to 0.5 nM in 20 mM tris-HCl (pH 7.5), 0.15% asolectin, and 0.15% CHAPS; and assayed using either 200 μM dQ or 200 μM ubiquinone-1 (Sigma-Aldrich). Complex I was purified from P. denitrificans strain Pd1222 ([61]) and provided by O. D. Jarman (MRC Mitochondrial Biology Unit, University of Cambridge); it was assayed likewise but in 10 mM MES-HCl (pH 6.5), 25 mM NaCl, and 2 mM CaCl2. […]

A further assay addresses T2, bovine complex I (Bos taurus, UniProt P03887+P17694+P42026).
T2 construct: Complex I from bovine heart were prepared; from tissue; host or cells: bovine heart mitochondria
Description: Inhibition kinetics in bovine complex I proteoliposomes with ubiquinone-10 and AOX. In kind it is biochemical. Particulars: versus ubiquinone-10, reciprocal plots and kinetic modelling. On the procedure:
Complex I from bovine heart were prepared and used to make proteoliposomes as described previously ([17], [23], [58]). Briefly, liposomes were formed from 8 mg of phosphatidylcholine, 1 mg of phosphatidylethanolamine, and 1 mg of cardiolipin (bovine heart extracts from Avanti Polar Lipids), together with varying amounts of ubiquinone-10 (Sigma-Aldrich), in ~800 μl of 10 mM 3-morpholinopropane-1-sulfonic acid (Mops)-KOH (pH 7.5) and 50 mM KCl. Following extrusion through a 100 nm of Nuclepore polycarbonate membrane (Whatman), the liposomes were partially solubilized with 0.5% sodium cholate (Anatrace), and 0.2 mg of complex I was added for reconstitution. […] Complex I concentration and orientation were quantified using the NADH:APAD^+ activity assay as described previously ([17], [23], [58]). Phospholipid phase volumes were calculated as described previously ([17], [23], [58]) to determine the amount of phospholipid present and by assuming that 1 mg of phospholipid occupies ∼1 μl. Ubiquinone-10 contents were quantified by HPLC, by reference to a set of standard samples, using a Nucleosil 100-5C18 column and a Dionex Ultimate 3000 RS electrochemical detector as described previously ([17], [23], [58]). […] All catalytic activity assays were conducted at 32°C in 96-well plates using a Molecular Devices Spectramax 384 plus plate reader. […]

In general, IC50 refers to the concentration that gives 50% inhibition. Low readings indicate higher potency, high ones lower potency.

As to `CS(=O)(=O)C1CCN(c2cccc(Cn3cc(-c4nc(-c5ccc(OC(F)(F)F)cc5)no4)ccc3=O)c2)CC1` [IACS-2858, 1-(3-(4-(Methylsulfonyl)piperidin-1-yl)benzyl)-5-(3-(4-(trifluoromethoxy)phenyl)-1,2,4-oxadiazol-5-yl)pyridin-2(1H)-one], the IC50 in assay [1] is around 61 µM. Besides, the mode of inhibition result at bovine complex I is recorded as “competitive”.
